# Data from publication PMC10708527, “Salazinic Acid and Norlobaridone from the Lichen Hypotrachyna cirrhata: Antioxidant Activity, α-Glucosidase Inhibitory and Molecular Docking Studies” (Molecules, 2023).
# Biological target: T1, intestinal α-glucosidase
# T1 construct: crude rat intestinal enzyme
# Experiment: crude enzyme inhibition, p-nitrophenyl-α-D-glucopyranoside hydrolysis at […] nm
# Assay type: biochemical, Rattus norvegicus
row,Intestinal α-Glucosidase % Inhibition (IC50) [µg/mL],Compound
1,1.62 ± 0.07,"Cc1cc(O)c(C=O)c2c1C(=O)Oc1c(CO)c(O)c3c(c1O2)C(O)OC3=O (centres unmarked) [compound 11, salazinic acid]"
2,1.41 ± 0.01,"CCCCCc1cc(O)cc2c1Oc1cc(O)cc(C(=O)CCCC)c1C(=O)O2 [compound 12, norlobaridone]"
3,2.07 ± 0.01,"COC(=O)c1c(C)cc(OC(=O)c2c(C)cc(O)c(C=O)c2O)c(C)c1O [compound 13, atranorin]"
4,1.99 ± 0.03,"COc1c(C)c(O)cc(C)c1C(=O)O [compound 18, iso-rhizonic acid]"
5,2.58 ± 0.85,"C[C@H]1O[C@H](O[C@H]2[C@H](O)[C@@H](O)[C@@H](O[C@H]3[C@H](O)[C@@H](O)C(O)O[C@@H]3CO)O[C@@H]2CO)[C@H](O)[C@@H](O)[C@@H]1N[C@H]1C=C(CO)[C@@H](O)[C@H](O)[C@H]1O (some centres unmarked) [acarbose, reference compound]"
